ChEMBL document CHEMBL5137114, “Discovery of IHMT-MST1-58 as a Novel, Potent, and Selective MST1 Inhibitor for the Treatment of Type 1/2 Diabetes” (J Med Chem, 2022)
Active and inactive are the calls of the source. No cut-off for these calls is given here.

Key:
RIN-m5F = test: Protection against TNF-alpha-induced cell damage in rat RIN-m5F cells assessed as increase in cell survival at 0.03 to 0.3 uM incubated for 48 hrs by Cell Titer-Glo assay; type: functional, cell-based; settings: dose 0.03-0.3 µM
[1] = biological target: T1, Serine/threonine-protein kinase Nek3 (Homo sapiens) (UniProt P51956); test: Binding affinity to wild-type human full length NEK3 (M1 to R506 residues) expressed in mammalian expression system at 1 uM by Kinomescan method
T1 sequence (whole entry): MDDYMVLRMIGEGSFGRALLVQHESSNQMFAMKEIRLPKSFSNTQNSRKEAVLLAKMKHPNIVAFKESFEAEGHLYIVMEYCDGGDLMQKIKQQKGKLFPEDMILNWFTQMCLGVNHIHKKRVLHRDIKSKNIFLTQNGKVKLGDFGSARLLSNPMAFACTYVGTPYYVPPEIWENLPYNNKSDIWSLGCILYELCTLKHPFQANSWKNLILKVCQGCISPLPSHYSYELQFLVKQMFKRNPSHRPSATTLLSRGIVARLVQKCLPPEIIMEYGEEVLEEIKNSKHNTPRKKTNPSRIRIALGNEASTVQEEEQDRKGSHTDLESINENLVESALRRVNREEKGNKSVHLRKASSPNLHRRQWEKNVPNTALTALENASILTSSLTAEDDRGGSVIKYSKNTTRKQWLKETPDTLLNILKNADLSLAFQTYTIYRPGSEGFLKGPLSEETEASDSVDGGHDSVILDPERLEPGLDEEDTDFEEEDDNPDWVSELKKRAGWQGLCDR

[2] = Toxicity in multi low dose STZ-induced C57BL/6J mouse model of type 1 diabetes assessed as effect on pancreas morphology at 50 mg/kg, po qd by H and E staining based analysis; type: organism-based; settings: in vivo
Mus musculus [3] = test: Antidiabetic activity in high fat diet-STZ-induced C57BL/6J mouse model of type 2 diabetes assessed as reduction in HbA1c level at 50 mg/kg, po qd (reference value: 8.6 %); type: functional; design: scale not given: the % may be the effect or the level left
INS1 = test: Protection against IFN-gamma-induced cell damage in rat INS1 cells assessed as increase in cell survival at 0.03 to 0.3 uM incubated for 48 hrs by Cell Titer-Glo assay; type: functional, cell-based; settings: dose 0.03-0.3 µM
[4] = Half life in mouse at 10 mg/kg, po measured up to 24 hrs by LC-MS/MS analysis; type: ADME, organism-based; settings: in vivo
[5] = Oral bioavailability in Sprague-Dawley rat at 10 mg/kg measured up to 24 hrs by LC-MS/MS analysis; type: ADME, organism-based; settings: in vivo
Mus musculus [6] = test: Antidiabetic activity against multi low dose STZ-induced C57BL/6J mouse model of type 1 diabetes assessed as food intake at 50 mg/kg, po administered for 1 to 2 days (reference value: 4.5 g/day); type: functional; settings: time 1-2 day
[7] = biological target: T2, Serine/threonine-protein kinase 4 (Homo sapiens, UniProt Q13043); test: Binding affinity to wild-type human full length MST1 (M1 to F487 residues) expressed in bacterial expression system by Kinomescan method
T2 sequence (Q13043 whole entry): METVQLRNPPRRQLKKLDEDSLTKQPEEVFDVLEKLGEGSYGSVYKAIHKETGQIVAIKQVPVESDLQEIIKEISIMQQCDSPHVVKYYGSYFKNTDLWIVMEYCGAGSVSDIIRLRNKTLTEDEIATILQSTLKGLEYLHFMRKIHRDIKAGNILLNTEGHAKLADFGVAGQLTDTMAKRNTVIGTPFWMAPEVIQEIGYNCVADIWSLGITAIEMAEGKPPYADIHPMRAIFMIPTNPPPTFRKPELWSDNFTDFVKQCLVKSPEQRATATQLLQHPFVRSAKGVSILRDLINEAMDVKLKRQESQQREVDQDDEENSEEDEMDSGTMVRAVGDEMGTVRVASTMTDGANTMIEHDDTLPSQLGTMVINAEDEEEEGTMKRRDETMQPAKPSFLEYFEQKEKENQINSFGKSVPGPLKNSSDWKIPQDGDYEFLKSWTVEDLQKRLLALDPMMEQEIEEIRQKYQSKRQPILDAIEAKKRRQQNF

[8] = Cmax in mouse at 10 mg/kg, po measured up to 24 hrs by LC-MS/MS analysis; type: ADME, organism-based; design: dose 10 mg/kg, time < 24 hrs, route po; settings: in vivo
[9] = Toxicity in high fat diet-STZ-induced C57BL/6J mouse model of type 2 diabetes assessed as effect on pancreas morphology at 50 mg/kg, po qd by H and E staining based analysis; type: organism-based; settings: in vivo
[10] = Oral bioavailability in mouse at 10 mg/kg measured up to 24 hrs by LC-MS/MS analysis; type: ADME, organism-based; settings: in vivo
[11] = Oral bioavailability in Beagle dog at 10 mg/kg measured up to 24 hrs by LC-MS/MS analysis; type: ADME, organism-based, Canis lupus familiaris; settings: in vivo
Mus musculus [12] = test: Antidiabetic activity against 8 hrs fasted multi low dose STZ-induced C57BL/6J mouse model of type 1 diabetes assessed as decrease in fasting blood glucose level at 50 mg/kg, po administered measured immediately (reference value: 19.3 mmol/L); type: functional
Mus musculus [13] = test: Antidiabetic activity against multi low dose STZ-induced C57BL/6J mouse model of type 1 diabetes assessed as food intake at 50 mg/kg, po administered for 1 to 2 days in presence of metformin (reference value: 4.5 g/day); type: functional; settings: time 1-2 day
[14] = Toxicity in multi low dose STZ-induced C57BL/6J mouse model of Type 1 diabetes assessed as effect on body weight at 50 mg/kg, po qd; type: organism-based; settings: in vivo
Mus musculus [15] = test: Antidiabetic activity against high fat diet-STZ-induced C57BL/6J mouse model of type 2 diabetes assessed as improvement in water consumption at 50 mg/kg, po qd administered upto 106 days in presence of metformin; type: functional, organism-based; settings: time <= 106.0 day
[16] = Cmax in Beagle dog at 1 mg/kg, iv measured up to 12 hrs by LC-MS/MS analysis; type: ADME, organism-based, Canis lupus familiaris; design: dose 1 mg/kg, time < 12 hrs, route iv; settings: in vivo
Mus musculus [17] = test: Antidiabetic activity against multi low dose STZ-induced C57BL/6J mouse model of type 1 diabetes assessed as food intake at 50 mg/kg, po administered for 78 to 79 days (reference value: 4.7 g/day); type: functional; settings: time 78-79 day

What does the source list for `Cc1ccccc1C1C(=O)N(C)c2cnc(Nc3ccc(S(N)(=O)=O)cc3)nc2N1C` (centres undefined)?
Activity (RIN-m5F): Active; Activity [1]: Active; Activity [2]: Non-Toxic; Activity (Mus musculus [3]): 7.9%; Activity (INS1): Active; half-life [4]: 1.81 h; F [5]: 73.3%; Activity (Mus musculus [6]): 4.5 g/day; Kd [7]: 240 nM; Cmax [8]: 1920 ng/mL; Activity [9]: Non-Toxic; bioavailability [10]: 111%; bioavailability [11]: 106%; Activity (Mus musculus [12]): 19.4 mmol/L; Activity (Mus musculus [13]): 5.4 g/day; Activity [14]: Non-Toxic; Activity (Mus musculus [15]): Active; Cmax [16]: 467 ng/mL; Activity (Mus musculus [17]): 4 g/day
